The source of these data is patent publication US9139525B2, “N-oxide and/or di-N-oxide derivatives of dopamine receptor stabilizers/modulators displaying improved cardiovascular side-effects profiles” (TEVA PHARMACEUTICALS INTERNATIONAL GMBH, priority 2007, dated 2015).

Data set [1] deals with dopamine, DOPAC and 5-HIAA in the striatum. The data set can be described thus: Microdialysis in rat striatum (freely moving rats; dopamine, DOPAC and 5-HIAA by HPLC with electrochemical detection). It is filed as in vivo. As for the experimental part:
Microdialysis in Rat Striatum Standard microdialysis experiments were performed on-line in freely moving rats. The striatum was perfused with a Ringer solution and dopamine, DOPAC and 5-HIAA were quantified by HPLC with electrochemical detection.

The conditions of data set [2]: after S-3-OTf-3-PPP-N-ox (13) 100 μmol/kg p.o.; between 0 h and 6 h; sampled every 1 h. As for the experimental part: 3-OTf-3-PPP-N-ox was measured at Rt=11.68 min with a +MRM of 368/235. Precursor 3-OTf-3-PPP was measured at Rt=11.50 min with a +MRM of 352/219.
Setting [3] is: oral administration, 91 μmol/kg.

For `CCC[N+]1([O-])CCC(c2cccc(S(C)(=O)=O)c2)CC1` (centres unmarked) [ACR16 N-oxide, 4-(3-Methanesulfonyl-phenyl)-1-propyl-piperidine-1-oxide], the results for the “3,4-dihydroxyphenylacetic acid (DOPAC) level” value in data set [1] (50 μmol/kg per os) and in data set [1] (100 μmol/kg per os given at 180 minutes after a first 50 μmol/kg per os) were “slight rise” and “goes up”, respectively. Further, the “dopamine (DA) level” value in data set [1] (50 μmol/kg per os, after about 45 minutes) is listed as “considerable rise”. Besides, in data set [1] (100 μmol/kg per os given at 180 minutes after a first 50 μmol/kg per os, peak after 240 minutes), the “level of dopamine, maximum height” value was “more than 250 % of controls”.

Turning to `CCC[N+]1([O-])CCCC(c2cccc(OS(=O)(=O)C(F)(F)F)c2)C1` (centres unmarked) [S-3-PPP triflate-N-oxide, S-Trifluoromethanesulfonic acid 3-(1-propyl-piperidin-3-yl)-phenyl ester-1-oxide], in data set [1] (100 μmol/kg per os), the “3,4-dihydroxyphenylacetic acid (DOPAC) level, maximum” value is on record as roughly 150%; the “dopamine (DA) level, maximum” value is given as “about 230%”; the “level of 5-hydroxyindolacetic acid (HIAA)” value is given as “around 100%”; the “time of maximum of DA and DOPAC level” value is “about 120 minutes”. Also, in data set [1] (100 μmol/kg per os, whole experiment (6 h)), the “course of DA and DOPAC levels after the maximum” value was “constant over the whole experiment”. Besides, the “pharmacological effect and duration of action” value in data set [1] (microdialysis in rat striatum) was “pronounced pharmacological effect with a very long duration of action”.

As to `CCC[N+]1([O-])CC=C(c2cccc(S(C)(=O)=O)c2)CC1` (centres unmarked) [ACR16-ene-N-ox, 4-(3-Methanesulfonyl-phenyl)-1-propyl-1,2,3,6-tetrahydro-pyridine-N-oxide], in data set [1] (setting [3]), the DA release entry is “about 300 % of controls”; the DOPAC release result is reported as “about 300 % of controls”; the “duration of the effects on DA and DOPAC release” value is greater than 4 h.

On to `CCCN1CCC[C@@H](c2cccc(OS(=O)(=O)C(F)(F)F)c2)C1` [(−)-3-PPP triflate, S-3-Trifluoro-methanesulfonyloxy-(1-n-propyl-phenyl)piperidine, reference compound], for which, in data set [1] (100 μmol/kg per os), the “3,4-dihydroxyphenylacetic acid (DOPAC) level, maximum” value is “about 175%”; the “dopamine (DA) level, maximum” value is listed as “about 175%”; the “level of 5-hydroxyindolacetic acid (HIAA)” value is “around 100%”; the “time of maximum of DA and DOPAC level” value is given as “about 150 minutes”. Also, in data set [1] (100 μmol/kg per os, after about 195 minutes (3.25 hours)), the “levels of dopamine and DOPAC after about 195 minutes” value is listed as “decrease”. Moreover, in data set [1] (100 μmol/kg per os, after about 240 minutes (4 hours)), the “dopamine level, second rise” value is 350 % of controls. The “striatal concentration of the precursor after dosing of the N-oxide” value in data set [2] is recorded as “continuous rise”.
